Contraction data for nine compounds are collected here from ChEMBL document CHEMBL1125940 (Bioorg Med Chem Lett, 1991).

SMILES strings stand for the structures. Positions of bridges follow the written chain, without caps; N, C: chain ends. Residues, ends and D or L forms follow the SMILES beside them.

The species entered for this assay is Oryctolagus cuniculus. The assay can be described thus: Percent of endothelin-1 induced contraction of carotid arteries isolated from New Zealand white rabbits, tested at 1 uM concentration of compound. In kind it is functional.
In turn, `CC[C@H](C)[C@H](NC(=O)[C@H](CC(=O)O)NC(=O)[C@H](CC(C)C)NC(=O)[C@H](Cc1c[nH]cn1)NC(=O)[C@@H]1CSSC[C@H](N)C(=O)N[C@@H](CO)C(=O)N[C@H]2CSSC[C@H](NC(=O)[C@H](CCC(=O)O)NC(=O)[C@H](CCCCN)NC(=O)[C@H](CC(=O)O)NC(=O)[C@H](CCSC)NC(=O)[C@H](CC(C)C)NC(=O)[C@H](CO)NC(=O)[C@H](CO)NC2=O)C(=O)N[C@@H](C(C)C)C(=O)N[C@@H](Cc2ccc(O)cc2)C(=O)N[C@@H](C)C(=O)N1)C(=O)N[C@H](C(=O)N[C@@H](Cc1c[nH]c2ccccc12)C(=O)O)[C@@H](C)CC` (H-CSCSSLMDKECVYACHLDIIW-OH; disulfide 1-15, 3-11) registered a Contraction of 6%.

As for `CC[C@H](C)[C@H](NC(=O)[C@H](C)NC(=O)[C@H](CC(C)C)NC(=O)[C@H](Cc1c[nH]cn1)NC(=O)[C@@H]1CSSC[C@H](N)C(=O)N[C@@H](CO)C(=O)N[C@H]2CSSC[C@H](NC(=O)[C@H](CCC(=O)O)NC(=O)[C@H](CCCCN)NC(=O)[C@H](CC(=O)O)NC(=O)[C@H](CCSC)NC(=O)[C@H](CC(C)C)NC(=O)[C@H](CO)NC(=O)[C@H](CO)NC2=O)C(=O)N[C@@H](C(C)C)C(=O)N[C@@H](Cc2ccc(O)cc2)C(=O)N[C@@H](Cc2ccccc2)C(=O)N1)C(=O)N[C@H](C(=O)N[C@@H](Cc1c[nH]c2ccccc12)C(=O)O)[C@@H](C)CC` (H-CSCSSLMDKECVYFCHLAIIW-OH; disulfide 1-15, 3-11), the Contraction was 0%.

As to `CC[C@H](C)[C@H](NC(=O)[C@H](CC(=O)O)NC(=O)[C@H](CC(C)C)NC(=O)[C@H](Cc1c[nH]cn1)NC(=O)[C@@H]1CSSC[C@H](N)C(=O)N[C@@H](CO)C(=O)N[C@H]2CSSC[C@H](NC(=O)[C@H](CCC(=O)O)NC(=O)[C@H](CCCCN)NC(=O)[C@H](CC(=O)O)NC(=O)[C@H](CCSC)NC(=O)[C@H](CC(C)C)NC(=O)[C@H](CO)NC(=O)[C@H](CO)NC2=O)C(=O)N[C@@H](C(C)C)C(=O)N[C@@H](Cc2ccc(O)cc2)C(=O)N[C@@H](Cc2ccccc2)C(=O)N1)C(=O)N[C@H](C(=O)N[C@@H](C)C(=O)O)[C@@H](C)CC` (H-CSCSSLMDKECVYFCHLDIIA-OH; disulfide 1-15, 3-11), the Contraction came out at 0%.

Take `CSCC[C@@H]1NC(=O)[C@H](CC(C)C)NC(=O)[C@H](CO)NC(=O)[C@H](CO)NC(=O)[C@@H]2CSSC[C@H](NC(=O)[C@H](CCC(=O)O)NC(=O)[C@H](CCCCN)NC(=O)[C@H](CC(=O)O)NC1=O)C(=O)N[C@@H](C(C)C)C(=O)N[C@@H](Cc1ccc(O)cc1)C(=O)N[C@@H](Cc1ccccc1)C(=O)N[C@H](C(=O)N[C@@H](Cc1c[nH]cn1)C(=O)N[C@@H](CC(C)C)C(=O)N[C@@H](CC(=O)O)C(=O)N[C@@H](C)C(=O)N[C@@H](C)C(=O)N[C@@H](Cc1c[nH]c3ccccc13)C(=O)O)CSSC[C@H](N)C(=O)N[C@@H](CO)C(=O)N2` (H-CSCSSLMDKECVYFCHLDAAW-OH; disulfide 1-15, 3-11): the Contraction is 50%.

`CC[C@H](C)[C@H](NC(=O)[C@H](CC(=O)O)NC(=O)[C@H](C)NC(=O)[C@H](Cc1c[nH]cn1)NC(=O)[C@@H]1CSSC[C@H](N)C(=O)N[C@@H](CO)C(=O)N[C@H]2CSSC[C@H](NC(=O)[C@H](CCC(=O)O)NC(=O)[C@H](CCCCN)NC(=O)[C@H](CC(=O)O)NC(=O)[C@H](CCSC)NC(=O)[C@H](CC(C)C)NC(=O)[C@H](CO)NC(=O)[C@H](CO)NC2=O)C(=O)N[C@@H](C(C)C)C(=O)N[C@@H](Cc2ccc(O)cc2)C(=O)N[C@@H](Cc2ccccc2)C(=O)N1)C(=O)N[C@H](C(=O)N[C@@H](Cc1c[nH]c2ccccc12)C(=O)O)[C@@H](C)CC` (H-CSCSSLMDKECVYFCHADIIW-OH; disulfide 1-15, 3-11) returned a Contraction of 0%.

Take `CC[C@H](C)[C@H](NC(=O)[C@H](CC(=O)O)NC(=O)[C@H](CC(C)C)NC(=O)[C@H](Cc1c[nH]cn1)NC(=O)[C@@H]1CSSC[C@H](N)C(=O)N[C@@H](CO)C(=O)N[C@H]2CSSC[C@H](NC(=O)[C@H](C)NC(=O)[C@H](CCCCN)NC(=O)[C@H](CC(=O)O)NC(=O)[C@H](CCSC)NC(=O)[C@H](CC(C)C)NC(=O)[C@H](CO)NC(=O)[C@H](CO)NC2=O)C(=O)N[C@@H](C(C)C)C(=O)N[C@@H](Cc2ccc(O)cc2)C(=O)N[C@@H](Cc2ccccc2)C(=O)N1)C(=O)N[C@H](C(=O)N[C@@H](Cc1c[nH]c2ccccc12)C(=O)O)[C@@H](C)CC` (H-CSCSSLMDKACVYFCHLDIIW-OH; disulfide 1-15, 3-11): the Contraction is reported as 7%.

As to `CC[C@H](C)[C@H](NC(=O)[C@H](CC(=O)O)NC(=O)[C@H](CC(C)C)NC(=O)[C@H](Cc1c[nH]cn1)NC(=O)[C@@H]1CSSC[C@H](N)C(=O)N[C@@H](CO)C(=O)N[C@H]2CSSC[C@H](NC(=O)[C@H](CCC(=O)O)NC(=O)[C@H](CCCCN)NC(=O)[C@H](C)NC(=O)[C@H](CCSC)NC(=O)[C@H](CC(C)C)NC(=O)[C@H](CO)NC(=O)[C@H](CO)NC2=O)C(=O)N[C@@H](C(C)C)C(=O)N[C@@H](Cc2ccc(O)cc2)C(=O)N[C@@H](Cc2ccccc2)C(=O)N1)C(=O)N[C@H](C(=O)N[C@@H](Cc1c[nH]c2ccccc12)C(=O)O)[C@@H](C)CC` (H-CSCSSLMAKECVYFCHLDIIW-OH; disulfide 1-15, 3-11), the Contraction amounted to 60%.

On to `CC[C@H](C)[C@H](NC(=O)[C@H](CC(=O)O)NC(=O)[C@H](CC(C)C)NC(=O)[C@H](Cc1c[nH]cn1)NC(=O)[C@@H]1CSSC[C@H](NC(C)=O)C(=O)N[C@@H](CO)C(=O)N[C@H]2CSSC[C@H](NC(=O)[C@H](CCC(=O)O)NC(=O)[C@H](CCCCN)NC(=O)[C@H](CC(=O)O)NC(=O)[C@H](CCSC)NC(=O)[C@H](CC(C)C)NC(=O)[C@H](CO)NC(=O)[C@H](CO)NC2=O)C(=O)N[C@@H](C(C)C)C(=O)N[C@@H](Cc2ccc(O)cc2)C(=O)N[C@@H](Cc2ccccc2)C(=O)N1)C(=O)N[C@H](C(=O)N[C@@H](Cc1c[nH]c2ccccc12)C(=O)O)[C@@H](C)CC`, for which the Contraction was 36%.

Compound `CC[C@H](C)[C@H](NC(=O)[C@H](CC(=O)O)NC(=O)[C@H](CC(C)C)NC(=O)[C@H](Cc1c[nH]cn1)NC(=O)[C@@H]1CSSC[C@H](N)C(=O)N[C@@H](CO)C(=O)N[C@H]2CSSC[C@H](NC(=O)[C@H](CCC(=O)O)NC(=O)[C@H](CCCCN)NC(=O)[C@H](CC(=O)O)NC(=O)[C@H](CCSC)NC(=O)[C@H](CC(C)C)NC(=O)[C@H](CO)NC(=O)[C@H](CO)NC2=O)C(=O)N[C@@H](C(C)C)C(=O)N[C@@H](Cc2ccc(O)cc2)C(=O)N[C@@H](Cc2ccccc2)C(=O)N1)C(=O)N[C@@H](C)C(=O)N[C@@H](Cc1c[nH]c2ccccc12)C(=O)O` (H-CSCSSLMDKECVYFCHLDIAW-OH; disulfide 1-15, 3-11) yielded a Contraction of 37%.
